Data published in PMC4628711, “Antiproliferative and Antiestrogenic Activities of Bonediol an Alkyl Catechol from Bonellia macrocarpa” (BioMed Research International, 2015).

What was measured:
[1] = molecular target: T1, ERα (estrogen receptor α) (Homo sapiens, UniProt P03372); experiment: competitive [3H]-17β-estradiol radioligand binding, in vitro translated receptor (TNT reticulocyte lysate)
T1 construct: gene ESR1
T1 sequence (P03372 1-595): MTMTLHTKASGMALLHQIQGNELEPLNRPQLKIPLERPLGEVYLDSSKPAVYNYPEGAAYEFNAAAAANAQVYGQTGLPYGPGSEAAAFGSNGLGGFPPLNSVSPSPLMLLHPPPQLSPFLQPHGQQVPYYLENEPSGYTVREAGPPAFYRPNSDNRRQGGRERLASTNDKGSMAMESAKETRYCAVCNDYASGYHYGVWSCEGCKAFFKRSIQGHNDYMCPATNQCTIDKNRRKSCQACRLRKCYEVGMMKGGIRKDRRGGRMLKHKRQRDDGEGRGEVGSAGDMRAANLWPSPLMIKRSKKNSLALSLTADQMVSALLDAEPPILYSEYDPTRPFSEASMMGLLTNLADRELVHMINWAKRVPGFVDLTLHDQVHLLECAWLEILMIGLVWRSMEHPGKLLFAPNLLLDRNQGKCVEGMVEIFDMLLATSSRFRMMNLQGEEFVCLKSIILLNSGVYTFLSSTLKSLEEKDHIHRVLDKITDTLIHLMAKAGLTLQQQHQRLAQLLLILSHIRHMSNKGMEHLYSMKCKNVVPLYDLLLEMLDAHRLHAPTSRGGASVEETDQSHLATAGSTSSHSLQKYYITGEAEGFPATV

[2] = molecular target: T2, ERβ (estrogen receptor β) (Homo sapiens, UniProt Q92731); experiment: as above
T2 construct: gene ESR2
T2 sequence (Q92731 whole entry): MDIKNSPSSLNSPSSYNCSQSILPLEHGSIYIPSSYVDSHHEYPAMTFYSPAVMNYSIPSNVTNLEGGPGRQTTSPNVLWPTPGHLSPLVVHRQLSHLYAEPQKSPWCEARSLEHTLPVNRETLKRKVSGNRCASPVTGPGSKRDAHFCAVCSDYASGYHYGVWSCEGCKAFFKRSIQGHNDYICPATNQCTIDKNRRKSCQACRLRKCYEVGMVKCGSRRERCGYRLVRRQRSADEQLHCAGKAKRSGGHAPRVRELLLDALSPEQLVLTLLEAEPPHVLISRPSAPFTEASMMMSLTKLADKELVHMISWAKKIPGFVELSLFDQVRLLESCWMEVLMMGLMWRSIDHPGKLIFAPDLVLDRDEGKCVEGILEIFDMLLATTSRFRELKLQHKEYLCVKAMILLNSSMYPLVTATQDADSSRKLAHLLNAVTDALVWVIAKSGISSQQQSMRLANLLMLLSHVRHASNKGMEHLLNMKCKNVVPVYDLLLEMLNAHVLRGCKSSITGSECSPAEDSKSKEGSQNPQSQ

Work on bonediol yielded an IC50 [1] of 2.5 µM and an IC50 [2] of 2.1 µM.
